Data on three compounds can be found in PubChem BioAssay AID1259407 (Chemical Carcinogenesis Research Information System (CCRIS), 2018).

Active and inactive are the calls of the source. The rule behind the calls is not given here.

For this data set, the system named is CCRIS mutagenicity, Ames/micronucleus/aberration tests. Briefly: CCRIS mutagenicity studies.

For `CCN(CC)C(=O)c1cccc(C)c1`, the mutagenic call is, setting by setting: (End Point: In vitro chromosomal aberrations, Test System: Chinese hamster ovary (CHO-K1) cells, Metabolic Activation: None) “inactive; negative”; (End Point: In vitro chromosomal aberrations, Test System: Chinese hamster ovary (CHO-K1) cells, Metabolic Activation: Rat, Liver, S-9, Aroclor 1254) “inactive; negative”; (Test System: AMES SALMONELLA TYPHIMURIUM, Strain/Indicator: TA97, Metabolic Activation: HAMSTER, LIVER, S-9, AROCLOR 1254 (10%), Method: PREINCUBATION) “inactive; negative”; (Test System: AMES SALMONELLA TYPHIMURIUM, Strain/Indicator: TA97, Metabolic Activation: HAMSTER, LIVER, S-9, AROCLOR 1254 (30%), Method: PREINCUBATION) “inactive; negative”; (Test System: AMES SALMONELLA TYPHIMURIUM, Strain/Indicator: TA97, Metabolic Activation: NONE, Method: PREINCUBATION) “inactive; negative”; (Test System: AMES SALMONELLA TYPHIMURIUM, Strain/Indicator: TA97, Metabolic Activation: RAT, LIVER, S-9, AROCLOR 1254 (10%), Method: PREINCUBATION) “inactive; negative”. The mutagenic call reads like this: (Test System: AMES SALMONELLA TYPHIMURIUM, Strain/Indicator: TA97, Metabolic Activation: RAT, LIVER, S-9, AROCLOR 1254 (30%), Method: PREINCUBATION) “inactive; negative”; (Test System: AMES SALMONELLA TYPHIMURIUM, Strain/Indicator: TA98, Metabolic Activation: HAMSTER, LIVER, S-9, AROCLOR 1254 (10 OR 30%), Method: PREINCUBATION) “inactive; negative”; (Test System: AMES SALMONELLA TYPHIMURIUM, Strain/Indicator: TA98, Metabolic Activation: NONE, Method: PREINCUBATION) “inactive; negative”; (Test System: AMES SALMONELLA TYPHIMURIUM, Strain/Indicator: TA98, Metabolic Activation: RAT, LIVER, S-9, AROCLOR 1254 (10 OR 30%), Method: PREINCUBATION) “inactive; negative”; (Test System: AMES SALMONELLA TYPHIMURIUM, Strain/Indicator: TA100, Metabolic Activation: HAMSTER, LIVER, S-9, AROCLOR 1254 (10 OR 30%), Method: PREINCUBATION) “inactive; negative”; (Test System: AMES SALMONELLA TYPHIMURIUM, Strain/Indicator: TA100, Metabolic Activation: NONE, Method: PREINCUBATION) “inactive; negative”. Also, the mutagenic call runs as follows: (Test System: AMES SALMONELLA TYPHIMURIUM, Strain/Indicator: TA100, Metabolic Activation: RAT, LIVER, S-9, AROCLOR 1254 (10 OR 30%), Method: PREINCUBATION) “inactive; negative”; (Test System: AMES SALMONELLA TYPHIMURIUM, Strain/Indicator: TA1535, Metabolic Activation: HAMSTER, LIVER, S-9, AROCLOR 1254 (10%), Method: PREINCUBATION) “inactive; negative”; (Test System: AMES SALMONELLA TYPHIMURIUM, Strain/Indicator: TA1535, Metabolic Activation: HAMSTER, LIVER, S-9, AROCLOR 1254 (30%), Method: PREINCUBATION) “inactive; negative”; (Test System: AMES SALMONELLA TYPHIMURIUM, Strain/Indicator: TA1535, Metabolic Activation: NONE, Method: PREINCUBATION) “inactive; negative”; (Test System: AMES SALMONELLA TYPHIMURIUM, Strain/Indicator: TA1535, Metabolic Activation: RAT, LIVER, S-9, AROCLOR 1254 (10%), Method: PREINCUBATION) “inactive; negative”; (Test System: AMES SALMONELLA TYPHIMURIUM, Strain/Indicator: TA1535, Metabolic Activation: RAT, LIVER, S-9, AROCLOR 1254 (30%), Method: PREINCUBATION) “inactive; negative”.
With `CC(C)=CCC/C(C)=C/CO`, the mutagenic call by setting is: (Test System: AMES SALMONELLA TYPHIMURIUM, Strain/Indicator: TA98, Metabolic Activation: NONE, Method: STANDARD PLATE) “inactive; negative”; (Test System: AMES SALMONELLA TYPHIMURIUM, Strain/Indicator: TA98, Metabolic Activation: S-9, Method: STANDARD PLATE) “inactive; negative”; (Test System: AMES SALMONELLA TYPHIMURIUM, Strain/Indicator: TA100, Metabolic Activation: NONE, Method: STANDARD PLATE) “inactive; negative”; (Test System: AMES SALMONELLA TYPHIMURIUM, Strain/Indicator: TA100, Metabolic Activation: S-9, Method: STANDARD PLATE) “inactive; negative”.
For `CC(C)C#N`, the mutagenic call reads like this: (End Point: In vitro chromosomal aberrations, Test System: Chinese hamster lung (CHL/IU) cells, Metabolic Activation: Rat, Liver, S9, Phenobarbital and 5,6-benzoflavone) “inactive; negative”; (Test System: Ames Salmonella typhimurium, Strain/Indicator: TA100, Metabolic Activation: None, Method: Preincubation) “active; positive”; (Test System: Ames Salmonella typhimurium, Strain/Indicator: TA100, Metabolic Activation: Rat, Liver, S9, Sodium phenobarbital and 5,6-benzoflavone (10%), Method: Preincubation) “active; positive”; (Test System: Ames Salmonella typhimurium, Strain/Indicator: TA1535, Metabolic Activation: None, Method: Preincubation) “inactive; negative”; (Test System: Ames Salmonella typhimurium, Strain/Indicator: TA1537, Metabolic Activation: None, Method: Preincubation) “active; positive”; (Test System: E. coli, Strain/Indicator: WP2uvrA/pKM101, Metabolic Activation: None, Method: Preincubation) “active; positive”. Moreover, under “Test System: E. coli, Strain/Indicator: WP2uvrA/pKM101, Metabolic Activation: Rat, Liver, S9, Sodium phenobarbital and 5,6-benzoflavone (10%), Method: Preincubation”, the mutagenic call is “active; positive”.
